Reference: US11845760B2, “PRMT5 inhibitors” (AMGEN INC., priority 2020, dated 2023)
Read-outs that look alike come from different tables or passages of the source.

Key:
HCT116 MTAP null cells = experiment: HCT116 MTAP null cell line proliferation (CellTiter-Glo cell viability, 6 days); type: cell-based; conditions: HCT116 MTAP null cells, 6 days of treatment, CellTiter-Glo cell viability, read-out: HCT-116 MTAP null IC50
Description: (§1) To assess selective anti-proliferative activity of compounds of the invention in cells that have loss expression of MTAP, an HCT-116 isogenic cell line pair was utilized where one cell line was engineered to genetically knockout both MTAP alleles. Cell viability was then assessed in both the parent HCT-116 cell line and the MTAP null cell line after 6 days of treatment with compounds of the present invention. Selective anti-proliferative activity in the MTAP null cell line indicates MTA-cooperative inhibition of PRMT5 and ability to inhibit growth of cancer cells that have loss of MTAP.
(§2) HCT116 MTAP null and WT cells were seeded in 96-well tissue culture plates in RPMI 1640 media+10% fetal bovine serum. Plates were incubated overnight at 37° C. and 5% CO2. Cells were then treated with an 8- or 9-point serial dilution of compound, using a top concentration of 1, or 10 μM, 1:3 serial dilution steps and, a DMSO-only control. Cells were incubated in the presence of drug for 6 days. Effects on cell viability were measured with the CellTiter-Glo® Luminescent Cell Viability Assay (Promega) per manufacturer's recommendation. Assay plates were read on an EnVision™ Multilabel Reader using the Ultra-Sensitive luminescence module. IC50 values were calculated with GraphPad Prism v 5.01 using symmetrical sigmoidal dose-response least squares fit with Hill slope fixed to −1 and top constrain to 100% or GeneData Screener using a 4-parameter logistic model to fit dose response curves.
(§3) Alternatively, compounds could be assayed with a 384 well plate format:
(§4) Compounds were pre-spotted into 384 well plates with a 22-point serial dilution of compound, using a top concentration of 10 or 50 μM, 1:2 serial dilution steps and, a DMSO-only control. HCT116 MTAP null and WT cells were then seeded as above and after 6 days effects on cell viability were measured with the CellTiter-Glo® Luminescent Cell Viability Assay (Promega). Assay plates were read as above and IC50 values were calculated with GeneData Screener using a 4-parameter logistic model to fit dose response curves. The reported IC50 represents the value where the curve transits 50% of control.

HCT116 WT cells = experiment: HCT116 WT cell line proliferation (CellTiter-Glo cell viability, 6 days); type: cell-based; conditions: HCT116 WT (parent) cells, 6 days of treatment, CellTiter-Glo cell viability, read-out: HCT-116 WT IC50
Description: as §1, §2, §3, §4

IC50 (HCT116 MTAP null cells; HCT116-MTAP null, 144 h) [nM]	IC50 (HCT116 WT cells; Homo sapiens, HCT-116, 144 h) [nM]	IC50 (HCT116 MTAP null cells) [nM]	IC50 (HCT116 WT cells) [nM]	Compound
39	1620	–	–	C[C@H]1OCc2c1c(N)nc1ccc(C(=O)N3CCOC[C@@H]3c3ccc(C(F)(F)C(F)(F)F)cc3)cc21 [Example 336, ((3R)-4-amino-3-methyl-1,3-dihydrofuro[3,4-c]quinolin-8-yl)((3S)-3-(4-(pentafluoroethyl)phenyl)-4-morpholinyl)methanone]
–	–	11	240	(4-amino-7-fluoro-1-methyl- 1H-pyrazolo[4,3-c]quinolin- 8-yl)((4R)-3,3-dimethyl-4-(4- (trifluoromethyl)phenyl)-1- pyrrolidinyl)methanone and (4-amino-7-fluoro-1-methyl- 1H-pyrazolo[4,3-c]quinolin- 8-yl)((4S)-3,3-dimethyl-4-(4- (trifluoromethyl)phenyl)-1- pyrrolidinyl)methanone [Example 445]
–	–	633	12500	Nc1nc2cc(F)c(C(=O)N3CC(c4ccc(C(F)(F)F)cc4)C3)cc2c2c1COC2 [Example 422]
–	–	30	1460	CC1OCc2c1c(N)nc1cnc(C(=O)N3CCOCC3c3ccc(C(F)(F)C(F)(F)F)cc3)cc21 (mixture of isomers) [Example 337, ((3R)-4-amino-3-methyl-1,3-dihydrofuro[3,4-c][1,7]naphthyridin-8-yl)((3S)-3-(4-(pentafluoroethyl)phenyl)-4-morpholinyl)methanone and ((3S)-4-amino-3-methyl-1,3-dihydrofuro[3,4-c][1,7]naphthyridin-8-yl)((3S)-3-(4-(pentafluoroethyl)phenyl)-4-morpholinyl)methanone]
547	> 50000	–	–	Nc1nc2cc(Cl)c(C(=O)N3CC[C@@](O)(c4ccc(C(F)(F)F)cc4)C3)cc2c2c1COC2 (single isomer, unassigned) [Example 477]
–	–	> 10000	> 10000	Nc1nc2cnc(C(=O)N3CCOC[C@H]3c3cnc(C(F)(F)F)cn3)cc2c2c1COC2 (single isomer, unassigned) [Example 614]
–	6420	842	–	Cn1ncc2c(N)nc3cc(F)c(C(=O)N4CC[C@@H](Oc5ccc(C(F)(F)F)cn5)C4)cc3c21 (single isomer, unassigned) [Example 474]
107	4330	–	–	Nc1nc2cnc(C(=O)N3CCOC[C@@H]3c3ccc(C(F)(F)F)cc3)cc2c2c1COC2 (single isomer, unassigned) [Example 481]
10	243	–	–	Nc1nc2cc(Cl)c(C(=O)N3CCOC[C@@H]3c3ccc(S(F)(F)(F)(F)F)cc3)cc2c2c1COC2 [Example 418, (4-amino-7-chloro-1,3-dihydrofuro[3,4-c]quinolin-8-yl)((3S)-3-(4-(pentafluoro-lambda~6~-sulfanyl)phenyl)-4-morpholinyl)methanone]
190	4470	–	–	Cn1ncc2c(N)nc3cc(F)c(C(=O)N4CC[C@H](Oc5ccc(C(F)(F)F)cc5)C4)cc3c21 (single isomer, unassigned) [Example 472]
–	–	53	2370	CC1OCc2c1c(N)nc1ccc(C(=O)N3C(C)COCC3c3ccc(OC(F)F)nn3)cc21 (mixture of isomers) [Example 317, ((3R)-4-amino-3-methyl-1,3-dihydrofuro[3,4-c]quinolin-8-yl)((3R,5S)-3-(6-(difluoromethoxy)-3-pyridazinyl)-5-methyl-4-morpholinyl)methanone and ((3R)-4-amino-3-methyl-1,3-dihydrofuro[3,4-c]quinolin-8-yl)((3S,5R)-3-(6-(difluoromethoxy)-3-pyridazinyl)-5-methyl-4-morpholinyl)methanone]
236	11700	–	–	Cn1ncc2c3cc(C(=O)N4CCOC[C@@H]4c4ccc(C(F)(F)F)cc4)ccc3nc(N)c21 (single isomer, unassigned) [Example 584]
